Experimental data as given in patent US6770597B2, “Benzohydrazide derivatives as herbicides and desiccant compositions containing them” (Ishihara Sangyo Kaisha, Ltd., priority 2002, dated 2004).

Assays:
Format in all cases: in vivo
[1] = test system: lambsquarters (Chenopodium album, CHEAL); experiment: Greenhouse herbicide screen, post-emerge application, phytotoxicity rating; conditions: POST emergent, 14 days after application, scale 0-100
Description: (§1) A standard greenhouse herbicide activity screening system was used to evaluate the herbicidal efficacy and crop safety of these test compounds. Seven broadleaf weed species including redroot pigweed (Amaranthus retrofiexus, AMARE), velvetleaf (Abutilon theophrasti, ABUTH), sicklepod (Cassia obtusifolia, CASOB), ivyleaf morningglory (Ipomoea hederacea, IPOHE), lambsquarters (Chenopodium album, CHEAL), common ragweed (Ambrosia artemisiifolia L., AMBEL), and cocklebur (Xanthium strumarium, XANST) were used as test species. Four grass weed species including green foxtail (Setaria viridis, SETVI), barnyardgrass (Echinochloa crus-galli, ECHCG), johnsongrass (Sorghum halepense, SORHA), and large crabgrass (Digitaria sanguinalis, DIGSA) were also used. In addition, four crop species, field corn (Zea mays L., var. Dekalb 535, CORN), soybean (Glycine max L., var. Pella 86, SOY), upland rice (Oryza sp., var.Cocodrie, RICE) and wheat (Triticum aestivum L.) were included.
(§2) All plants were grown in 10 cm square plastic pots which were filled with a sandy loam soil mix. For pre-emerge tests, seeds were planted one day prior to application of the test compounds. For post-emerge tests, seeds were planted 8-21 days prior to the test to allow emergence and good foliage development prior to application of the test substances. At the time of the post-emerge application, plants of all species were usually at the 2-3 leaf stage of development.
(§3) All test compounds were dissolved in acetone and applied to the test units in a volume of 187 l/ha. Test materials were applied at rates ranging from 15 g ai/ha to 1000 g ai/ha using a track sprayer equipped with a TJ8001E even flow flat fan spray nozzle. Plants were arranged on a shelf so that the top of the canopy (post-emerge) or top of the soil surface (pre-emerge) was 40-45 cm below the nozzle. Pressurized air was used to force the test solution through the nozzle as it was mechanically advanced (via electrically driven chain drive) over the top of all test plants/pots. This application simulates a typical commercial field herbicide application.
(§4) Pre-emergence tests were top watered immediately after treatment to incorporate the test materials, then routinely top-watered for normal growth. Post-emerge test units were always bottom-watered.
(§5) At 14 days after application of the test materials, phytotoxicity ratings were recorded. A rating scale of 0-100 was used as previously described in Research Methods in Weed Science, 2nd edition, B. Truelove, Ed., Southern Weed Science Society, Auburn University, Auburn, Ala., 1977. Briefly, “0” corresponds to no damage and “100” corresponds to complete death of all plants in the test unit. This scale was used both to determine efficacy against weed species and damage to crop species. Herbicide activity data for various compounds of this invention, which are shown by compound No. in Tables 1-12, are shown in Tables 13 and 14.

[2] = test system: sicklepod (Cassia obtusifolia, CASOB); experiment: as above; conditions: POST emergent, 14 days after application, scale 0-100
Description: as §1, §2, §3, §4, §5

[3] = test system: johnsongrass (Sorghum halepense, SORHA); experiment: as above; conditions: POST emergent, 14 days after application, scale 0-100
Description: as §1, §2, §3, §4, §5

[4] = test system: large crabgrass (Digitaria sanguinalis, DIGSA); experiment: as above; conditions: POST emergent, 14 days after application, scale 0-100
Description: as §1, §2, §3, §4, §5

[5] = test system: velvetleaf (Abutilon theophrasti, ABUTH); experiment: as above; conditions: POST emergent, 14 days after application, scale 0-100
Description: as §1, §2, §3, §4, §5

[6] = test system: cocklebur (Xanthium strumarium, XANST); experiment: as above; conditions: POST emergent, 14 days after application, scale 0-100
Description: as §1, §2, §3, §4, §5

[7] = test system: ivyleaf morningglory (Ipomoea hederacea, IPOHE); experiment: as above; conditions: POST emergent, 14 days after application, scale 0-100
Description: as §1, §2, §3, §4, §5

[8] = test system: common ragweed (Ambrosia artemisiifolia L., AMBEL); experiment: as above; conditions: POST emergent, 14 days after application, scale 0-100
Description: as §1, §2, §3, §4, §5

[9] = test system: green foxtail (Setaria viridis, SETVI); experiment: as above; conditions: POST emergent, 14 days after application, scale 0-100
Description: as §1, §2, §3, §4, §5

[10] = test system: barnyardgrass (Echinochloa crus-galli, ECHCG); experiment: as above; conditions: POST emergent, 14 days after application, scale 0-100
Description: as §1, §2, §3, §4, §5

[11] = test system: redroot pigweed (Amaranthus retrofiexus, AMARE); experiment: as above; conditions: POST emergent, 14 days after application
Description: as §1, §2, §3, §4, §5

[12] = test system: lambsquarters (Chenopodium album, CHEAL); experiment: Greenhouse herbicide screen, pre-emerge application, phytotoxicity rating; conditions: PRE emergent, 14 days after application, rating scale 0-100
Description: as §1, §2, §3, §4, §5

[13] = test system: sicklepod (Cassia obtusifolia, CASOB); experiment: as above; conditions: PRE emergent, 14 days after application, rating scale 0-100
Description: as §1, §2, §3, §4, §5

[14] = test system: johnsongrass (Sorghum halepense, SORHA); experiment: as above; conditions: PRE emergent, 14 days after application, rating scale 0-100
Description: as §1, §2, §3, §4, §5

[15] = test system: large crabgrass (Digitaria sanguinalis, DIGSA); experiment: as above; conditions: PRE emergent, 14 days after application, rating scale 0-100
Description: as §1, §2, §3, §4, §5

[16] = test system: velvetleaf (Abutilon theophrasti, ABUTH); experiment: as above; conditions: PRE emergent, 14 days after application, rating scale 0-100
Description: as §1, §2, §3, §4, §5

[17] = test system: cocklebur (Xanthium strumarium, XANST); experiment: as above; conditions: PRE emergent, 14 days after application, rating scale 0-100
Description: as §1, §2, §3, §4, §5

[18] = test system: ivyleaf morningglory (Ipomoea hederacea, IPOHE); experiment: as above; conditions: PRE emergent, 14 days after application, rating scale 0-100
Description: as §1, §2, §3, §4, §5

[19] = test system: common ragweed (Ambrosia artemisiifolia L., AMBEL); experiment: as above; conditions: PRE emergent, 14 days after application, rating scale 0-100
Description: as §1, §2, §3, §4, §5

[20] = test system: green foxtail (Setaria viridis, SETVI); experiment: as above; conditions: PRE emergent, 14 days after application, rating scale 0-100
Description: as §1, §2, §3, §4, §5

[21] = test system: barnyardgrass (Echinochloa crus-galli, ECHCG); experiment: as above; conditions: PRE emergent, 14 days after application, rating scale 0-100
Description: as §1, §2, §3, §4, §5

[22] = test system: redroot pigweed (Amaranthus retrofiexus, AMARE); experiment: as above; conditions: PRE emergent, 14 days after application, rating scale 0-100
Description: as §1, §2, §3, §4, §5

SMILES: CC(=NNC(=O)c1cc(-n2c(=O)cc(C(F)(F)F)n(C)c2=O)c(F)cc1Cl)C(C)(C)C [Compound 6-5, 2-chloro-5-(3,6-dihydro-3-methyl-2,6-dioxo-4-(trifluoromethyl)-1(2H)-pyrimidinyl)-4-fluoro-benzoic Acid, 2-(1,2,2-trimethylpropylidene)hydrazide]
- phytotoxicity rating CHEAL ([1]; 63 g ai/ha): 60
- phytotoxicity rating CHEAL ([1]; 250 g ai/ha): 95
- phytotoxicity rating CASOB ([2]; 63 g ai/ha): 50
- phytotoxicity rating CASOB ([2]; 250 g ai/ha): 65
- phytotoxicity rating SORHA ([3]; 63 g ai/ha): 0
- phytotoxicity rating SORHA ([3]; 250 g ai/ha): 90
- phytotoxicity rating DIGSA ([4]; 63 g ai/ha): 75
- phytotoxicity rating DIGSA ([4]; 250 g ai/ha): 80
- phytotoxicity rating ABUTH ([5]; 63 g ai/ha): 65
- phytotoxicity rating ABUTH ([5]; 250 g ai/ha): 100
- phytotoxicity rating XANST ([6]; 63 g ai/ha): 70
- phytotoxicity rating XANST ([6]; 250 g ai/ha): 100
- phytotoxicity rating IPOHE ([7]; 63 g ai/ha): 75
- phytotoxicity rating IPOHE ([7]; 250 g ai/ha): 100
- phytotoxicity rating AMBEL ([8]; 63 g ai/ha): 60
- phytotoxicity rating AMBEL ([8]; 250 g ai/ha): 80
- phytotoxicity rating SETVI ([9]; 63 g ai/ha): 30
- phytotoxicity rating SETVI ([9]; 250 g ai/ha): 55
- phytotoxicity rating ECHCO ([10]; 63 g ai/ha): 80
- phytotoxicity rating ECHCO ([10]; 250 g ai/ha): 95
- phytotoxicity rating AMARE ([11]; 63 g ai/ha, scale 0-100 (0 no damage, 100 complete death)): 70
- phytotoxicity rating AMARE ([11]; 250 g ai/ha, scale 0-100): 100
- phytotoxicity rating CHEAL ([12]; 63 g ai/ha): 99
- phytotoxicity rating CHEAL ([12]; 250 g ai/ha): 100
- phytotoxicity rating CASOB ([13]; 63 g ai/ha): 50
- phytotoxicity rating CASOB ([13]; 250 g ai/ha): 70
- phytotoxicity rating SORHA ([14]; 63 g ai/ha): 85
- phytotoxicity rating SORHA ([14]; 250 g ai/ha): 99
- phytotoxicity rating DIGSA ([15]; 63 g ai/ha): 90
- phytotoxicity rating DIGSA ([15]; 250 g ai/ha): 99
- phytotoxicity rating ABUTH ([16]; 63 g ai/ha): 95
- phytotoxicity rating ABUTH ([16]; 250 g ai/ha): 100
- phytotoxicity rating XANST ([17]; 63 g ai/ha): 55
- phytotoxicity rating XANST ([17]; 250 g ai/ha): 99
- phytotoxicity rating IPOHE ([18]; 63 g ai/ha): 100
- phytotoxicity rating IPOHE ([18]; 250 g ai/ha): 100
- phytotoxicity rating AMBEL ([19]; 63 g ai/ha): 70
- phytotoxicity rating AMBEL ([19]; 250 g ai/ha): 100
- phytotoxicity rating SETVI ([20]; 63 g ai/ha): 60
- phytotoxicity rating SETVI ([20]; 250 g ai/ha): 85
- phytotoxicity rating ECHCG ([21]; 63 g ai/ha): 55
- phytotoxicity rating ECHCG ([21]; 250 g ai/ha): 90
- phytotoxicity rating AMARE ([22]; 63 g ai/ha): 99
- phytotoxicity rating AMARE ([22]; 250 g ai/ha): 100
